Measured values reported in ChEMBL document CHEMBL4052695, “Introduction of fluorine to phenyl group of 4-(2-pyrimidinylamino)benzamides leading to a series of potent hedgehog signaling pathway inhibitors” (Bioorg Med Chem Lett, 2017).

Columns and labels:
[1] = Inhibition of hedgehog signaling pathway in mouse NIH/3T3 cells carrying stably transfected Gli-reporter construct by luciferase reporter assay; assay type: cell-based; conditions: NIH3T3
Mus musculus = species: Mus musculus; assay: Potency index, ratio of IC50 for Vismodegib to IC50 for test compound for inhibition of hedgehog signaling pathway in mouse NIH/3T3 cells carrying stably transfected Gli-reporter construct by luciferase reporter assay; assay type: cell-based
[2] = Half life in Sprague-Dawley rat at 1 mg/kg, iv formulated using 5% DMA + 5% Tween-80 measured during 2 mins to 24 hrs post dose by LC/MS/MS method; assay type: ADME, organism-based; conditions: in vivo
[3] = Half life in Sprague-Dawley rat at 5 mg/kg, po formulated using 5% DMA + 5% Tween-80 measured during 2 mins to 24 hrs post dose by LC/MS/MS method; assay type: ADME, organism-based; conditions: in vivo
[4] = Half life in Sprague-Dawley rat at 5 mg/kg, po formulated using 0.5% HPMC + 0.3% Tween-80 (pH = 2.8) measured during 2 mins to 24 hrs post dose by LC/MS/MS method; assay type: ADME, organism-based; conditions: in vivo
[5] = Cmax in Sprague-Dawley rat at 1 mg/kg, iv formulated using 5% DMA + 5% Tween-80 measured during 2 mins to 24 hrs post dose by LC/MS/MS method; assay type: ADME, organism-based; design: dose 1 mg/kg, route intravenous; conditions: in vivo
[6] = Cmax in Sprague-Dawley rat at 5 mg/kg, po formulated using 5% DMA + 5% Tween-80 measured during 2 mins to 24 hrs post dose by LC/MS/MS method; assay type: ADME, organism-based; design: dose 5 mg/kg, route oral; conditions: in vivo
[7] = Cmax in Sprague-Dawley rat at 5 mg/kg, po formulated using 0.5% HPMC + 0.3% Tween-80 (pH = 2.8) measured during 2 mins to 24 hrs post dose by LC/MS/MS method; assay type: ADME, organism-based; design: dose 5 mg/kg, route oral; conditions: in vivo
[8] = AUC (0 to t) in Sprague-Dawley rat at 1 mg/kg, iv formulated using 5% DMA + 5% Tween-80 measured during 2 mins to 24 hrs post dose by LC/MS/MS method; assay type: ADME, organism-based; design: dose 1 mg/kg, time 0.033-24 hr, route intravenous; conditions: in vivo
[9] = AUC (0 to t) in Sprague-Dawley rat at 5 mg/kg, po formulated using 5% DMA + 5% Tween-80 measured during 2 mins to 24 hrs post dose by LC/MS/MS method; assay type: ADME, organism-based; design: time upper 24 hr, time lower 0.033 hr, dose 5 mg/kg, route oral; conditions: in vivo
[10] = AUC (0 to t) in Sprague-Dawley rat at 5 mg/kg, po formulated using 0.5% HPMC + 0.3% Tween-80 (pH = 2.8) measured during 2 mins to 24 hrs post dose by LC/MS/MS method; assay type: ADME, organism-based; design: time 0.033-24 hr, dose 5 mg/kg, route oral; conditions: in vivo
[11] = Apparent volume of distribution in Sprague-Dawley rat at 1 mg/kg, iv formulated using 5% DMA + 5% Tween-80 measured during 2 mins to 24 hrs post dose by LC/MS/MS method; assay type: ADME, organism-based; conditions: in vivo, read-out: Vz
Rattus norvegicus [12] = assay: Apparent volume of distribution in Sprague-Dawley rat at 5 mg/kg, po formulated using 5% DMA + 5% Tween-80 measured during 2 mins to 24 hrs post dose by LC/MS/MS method; assay type: ADME, organism-based; conditions: in vivo
Rattus norvegicus [13] = assay: Apparent volume of distribution in Sprague-Dawley rat at 5 mg/kg, po formulated using 0.5% HPMC + 0.3% Tween-80 (pH = 2.8) measured during 2 mins to 24 hrs post dose by LC/MS/MS method; assay type: ADME, organism-based; conditions: in vivo, pH 2.8, 5 mg/kg
[14] = Clearance in Sprague-Dawley rat at 1 mg/kg, iv formulated using 5% DMA + 5% Tween-80 measured during 2 mins to 24 hrs post dose by LC/MS/MS method; assay type: ADME, organism-based; conditions: in vivo
[15] = Clearance in Sprague-Dawley rat at 5 mg/kg, po formulated using 5% DMA + 5% Tween-80 measured during 2 mins to 24 hrs post dose by LC/MS/MS method; assay type: ADME, organism-based; conditions: in vivo
[16] = Clearance in Sprague-Dawley rat at 5 mg/kg, po formulated using 0.5% HPMC + 0.3% Tween-80 (pH = 2.8) measured during 2 mins to 24 hrs post dose by LC/MS/MS method; assay type: ADME, organism-based; conditions: in vivo
[17] = Mean residence time (0 to t) in Sprague-Dawley rat at 1 mg/kg, iv formulated using 5% DMA + 5% Tween-80 measured during 2 mins to 24 hrs post dose by LC/MS/MS method; assay type: ADME, organism-based; conditions: in vivo
[18] = Mean residence time (0 to t) in Sprague-Dawley rat at 5 mg/kg, po formulated using 5% DMA + 5% Tween-80 measured during 2 mins to 24 hrs post dose by LC/MS/MS method; assay type: ADME, organism-based; conditions: in vivo
[19] = Mean residence time (0 to t) in Sprague-Dawley rat at 5 mg/kg, po formulated using 0.5% HPMC + 0.3% Tween-80 (pH = 2.8) measured during 2 mins to 24 hrs post dose by LC/MS/MS method; assay type: ADME, organism-based; conditions: in vivo

Structure (SMILES)	IC50 [1] [nM]	Ratio IC50 (Mus musculus)	also measured
Cc1ccc(CN2CCN(C)CC2)cc1NC(=O)c1ccc(Nc2ncc(F)c(-c3ccc(OC(F)(F)F)cc3)n2)c(F)c1	5.67	–	–
Cc1ccc(CN2CCN(C)CC2)cc1NC(=O)c1ccc(Nc2ncc(C)c(-c3ccc(OC(F)(F)F)cc3)n2)c(F)c1	0.93	> 8	half-life [2]: 13.5 h; half-life [3]: 14.9 h; half-life [4]: 11.7 h; Cmax [5]: 225 ng/mL; Cmax [6]: 62.4 ng/mL; Cmax [7]: 57.1 ng/mL; AUC(0-t) [8]: 383 ng·h/mL; AUC(0-t) [9]: 956 ng·h/mL; AUC(0-t) [10]: 882 ng·h/mL; Vd [11]: 37.4 L/kg; Vz (Rattus norvegicus [12]): 71.6877 L/kg; Vz (Rattus norvegicus [13]): 69.4647 L/kg; clearance [14]: 32.2 mL/min/kg; CL/F [15]: 55.7 mL/min/kg; CL/F [16]: 68.7 mL/min/kg; MRT last [17]: 7.93 h; MRT last [18]: 10.7 h; MRT last [19]: 10.3 h
CS(=O)(=O)c1ccc(C(=O)Nc2ccc(Cl)c(-c3ccccn3)c2)c(Cl)c1 [VISMODEGIB]	7.2	–	–
Cc1ccc(CN2CCOCC2)cc1NC(=O)c1ccc(Nc2ncc(C)c(-c3ccc(OC(F)(F)F)cc3)n2)c(F)c1	0.5	14	–
Cc1ccc(CN2CCN(C)CC2)cc1NC(=O)c1ccc(Nc2nccc(-c3cccnc3)n2)c(F)c1	7.2	–	–
Cc1ccc(CN(C)C)cc1NC(=O)c1ccc(Nc2ncc(C)c(-c3ccc(OC(F)(F)F)cc3)n2)c(F)c1	0.78	> 8	–
Cc1ccc(CN2CCOCC2)cc1NC(=O)c1ccc(Nc2nccc(-c3cnn(C)c3)n2)c(F)c1	48.9	–	–
Cc1ccc(CN2CCOCC2)cc1NC(=O)c1ccc(Nc2ncc(C)c(-c3ccccc3)n2)c(F)c1	0.05	150	–
Cc1ccc(CN2CCN(C)CC2)cc1NC(=O)c1ccc(Nc2ncc(F)c(-c3ccncc3)n2)c(F)c1	42.7	–	–
Cc1ccc(CN2CCCC2)cc1NC(=O)c1ccc(Nc2ncc(C)c(-c3ccc(OC(F)(F)F)cc3)n2)c(F)c1	2.03	–	–
Cc1ccc(CN2CCOCC2)cc1NC(=O)c1ccc(Nc2ncc(C)c(-c3ccccn3)n2)c(F)c1	1.15	–	–
Cc1ccc(CN2CCCCC2)cc1NC(=O)c1ccc(Nc2ncc(C)c(-c3ccc(OC(F)(F)F)cc3)n2)c(F)c1	0.94	> 8	–
CCN(CC)Cc1ccc(C)c(NC(=O)c2ccc(Nc3ncc(C)c(-c4ccc(OC(F)(F)F)cc4)n3)c(F)c2)c1	0.9	> 8	–
Cc1ccc(OCCN2CCOCC2)cc1NC(=O)c1ccc(Nc2ncc(C)c(-c3ccc(OC(F)(F)F)cc3)n2)c(F)c1	0.71	> 8	–
Cc1ccc(OCCCN2CCOCC2)cc1NC(=O)c1ccc(Nc2ncc(C)c(-c3ccc(OC(F)(F)F)cc3)n2)c(F)c1	1.02	–	–
